Consider one molecule from patent US12290535B2, “Langerin+ cell targeting” (Max-Planck-Gesellschaft zur Förderung der Wissenschaften …, priority 2018, dated 2025).

In this assay the target is T1, Langerin CRD (Homo sapiens, UniProt Q9UJ71, V278A).
T1 construct: residues 193 to 328; made in house; host or cells: E. coli BL21* (DE3)
Nature of the assay: 15N HSQC NMR titration (KD determination). The class given is binding. The protocol:
Langerin and DC-SIGN carbohydrate recognition domain. Expression and purification were conducted as previously published. Briefly, the monomeric ^15N-labeled Langerin and DC-SIGN carbohydrate recognition domains (CRDs) were expressed insolubly in E. coli BL21* (DE3) (Invitrogen). Following enzymatic cell lysis, inclusion bodies were harvested and subsequently solubilized. The sample was centrifuged and the Langerin and DC-SIGN CRDs were refolded overnight via rapid dilution. Next, the sample was dialyzed overnight, centrifuged and purified via StrepTactin affinity chromatography (Iba). […] The concentration of Langerin and DC-SIGN CRDs was determined via UV spectroscopy (A280, 0.1%=3.19 and A280, 0.1%=2.98). Purity and monodispersity of Langerin and DC-SIGN CRD samples were analyzed via SDS PAGE and DLS. […]
KD determination. KD values were determined in titration experiments at six ligand concentrations [L]T. Samples were prepared via serial dilution. Chemical shift perturbations CSPs for Langerin CRD resonances in the fast or fast-to-intermediate exchange regime observed upon titration with ligand were calculated via Equation 1 (Williamson, M. P. Using Chemical Shift Perturbation to Characterise Ligand Binding. Prog Nucl Magn Reson Spectrosc 73, 1-16 (2013)). […]

T1 sequence (Q9UJ71 193-328 V278A): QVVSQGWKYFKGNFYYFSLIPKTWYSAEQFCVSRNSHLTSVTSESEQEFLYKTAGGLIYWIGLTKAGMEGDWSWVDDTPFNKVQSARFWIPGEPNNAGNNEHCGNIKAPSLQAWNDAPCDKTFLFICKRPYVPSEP

As usually defined, the Kd is the concentration at which binding is half-saturated. Lower therefore signals higher affinity. Take `CC(=O)NCCO[C@H]1O[C@H](CO)[C@@H](O)[C@H](O)[C@@H]1O` [Man analog 21]: binding was characterised by a dissociation constant (Kd) of 12 ± 1 mM.
